Assays:
[1] = target: Vascular endothelial growth factor receptor 1 (Homo sapiens, UniProt P17948)
[2] = target: T1, Myosin light chain kinase family member 4 (Homo sapiens, UniProt Q86YV6)
T1 sequence (Q86YV6 whole entry): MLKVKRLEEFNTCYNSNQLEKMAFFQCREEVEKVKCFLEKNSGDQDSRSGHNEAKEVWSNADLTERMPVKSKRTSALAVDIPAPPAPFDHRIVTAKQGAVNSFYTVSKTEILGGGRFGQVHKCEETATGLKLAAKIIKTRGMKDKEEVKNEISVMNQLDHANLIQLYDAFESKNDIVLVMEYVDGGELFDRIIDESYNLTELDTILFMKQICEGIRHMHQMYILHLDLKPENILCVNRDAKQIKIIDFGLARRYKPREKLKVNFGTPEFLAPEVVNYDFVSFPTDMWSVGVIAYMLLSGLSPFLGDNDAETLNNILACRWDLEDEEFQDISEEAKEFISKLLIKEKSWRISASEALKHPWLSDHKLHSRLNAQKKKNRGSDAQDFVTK

[3] = target: Vascular endothelial growth factor receptor 2 (Homo sapiens, UniProt P35968)
[4] = target: Mast/stem cell growth factor receptor Kit (Homo sapiens, UniProt P10721, V559D)
[5] = target: T2, Dual specificity protein kinase TTK (Homo sapiens, UniProt P33981)
T2 sequence (P33981 whole entry): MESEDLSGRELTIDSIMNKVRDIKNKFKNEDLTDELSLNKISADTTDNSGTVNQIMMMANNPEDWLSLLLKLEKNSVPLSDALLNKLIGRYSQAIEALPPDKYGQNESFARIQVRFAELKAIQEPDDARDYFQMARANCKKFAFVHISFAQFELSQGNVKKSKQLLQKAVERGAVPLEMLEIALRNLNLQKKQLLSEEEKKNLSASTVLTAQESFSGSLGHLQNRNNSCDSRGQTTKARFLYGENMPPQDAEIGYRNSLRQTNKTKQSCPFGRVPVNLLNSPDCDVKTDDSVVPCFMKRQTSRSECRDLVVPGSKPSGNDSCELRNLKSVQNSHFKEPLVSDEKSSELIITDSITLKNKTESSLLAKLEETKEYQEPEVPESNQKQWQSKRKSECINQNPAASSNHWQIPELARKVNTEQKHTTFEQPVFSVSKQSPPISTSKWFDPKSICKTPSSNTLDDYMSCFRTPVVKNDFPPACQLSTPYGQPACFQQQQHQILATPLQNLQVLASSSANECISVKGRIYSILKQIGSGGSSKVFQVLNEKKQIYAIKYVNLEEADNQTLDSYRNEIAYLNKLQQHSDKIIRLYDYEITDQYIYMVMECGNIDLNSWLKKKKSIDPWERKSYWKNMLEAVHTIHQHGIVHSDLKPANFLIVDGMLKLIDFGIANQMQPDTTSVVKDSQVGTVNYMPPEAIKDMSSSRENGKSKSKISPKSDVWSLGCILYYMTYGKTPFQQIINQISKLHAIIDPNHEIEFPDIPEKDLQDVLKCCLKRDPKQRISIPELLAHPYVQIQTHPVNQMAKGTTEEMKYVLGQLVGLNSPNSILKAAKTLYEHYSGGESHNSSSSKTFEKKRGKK

[6] = target: Serine/threonine-protein kinase PAK 6 (Homo sapiens, UniProt Q9NQU5)
Myosin-IIIa = Myosin-IIIa (Homo sapiens, UniProt Q8NEV4)
[7] = target: Calcium/calmodulin-dependent protein kinase type II subunit beta (Homo sapiens, UniProt Q13554)
[8] = target: Mitogen-activated protein kinase kinase kinase 9 (Homo sapiens, UniProt P80192)
[9] = target: T3, Serine/threonine-protein kinase DCLK3 (Homo sapiens, UniProt Q9C098)
T3 sequence (Q9C098 whole entry): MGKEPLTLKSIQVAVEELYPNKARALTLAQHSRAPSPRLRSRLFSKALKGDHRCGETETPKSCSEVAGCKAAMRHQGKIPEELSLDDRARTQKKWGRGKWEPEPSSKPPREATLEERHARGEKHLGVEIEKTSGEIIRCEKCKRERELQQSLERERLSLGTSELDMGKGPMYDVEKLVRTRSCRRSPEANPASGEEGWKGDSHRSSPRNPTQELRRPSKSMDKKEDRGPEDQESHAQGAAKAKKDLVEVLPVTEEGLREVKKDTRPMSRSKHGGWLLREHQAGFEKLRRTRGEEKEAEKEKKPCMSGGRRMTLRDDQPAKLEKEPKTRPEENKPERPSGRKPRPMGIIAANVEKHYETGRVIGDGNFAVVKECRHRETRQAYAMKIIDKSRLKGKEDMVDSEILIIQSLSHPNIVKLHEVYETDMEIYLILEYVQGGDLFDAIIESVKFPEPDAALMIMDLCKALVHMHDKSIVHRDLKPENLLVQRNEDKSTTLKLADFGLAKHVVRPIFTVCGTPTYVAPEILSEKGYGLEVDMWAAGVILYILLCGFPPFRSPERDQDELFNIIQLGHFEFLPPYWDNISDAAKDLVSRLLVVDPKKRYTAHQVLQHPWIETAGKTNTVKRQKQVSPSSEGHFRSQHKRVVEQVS

Activin receptor type-2B = Activin receptor type-2B (Homo sapiens, UniProt Q13705)
[10] = target: cAMP-dependent protein kinase catalytic subunit beta (Homo sapiens, UniProt P22694)
[11] = target: Ribosomal protein S6 kinase alpha-2 (Homo sapiens, UniProt Q15349)
[12] = target: T4, Phosphatidylinositol 5-phosphate 4-kinase type-2 beta (Homo sapiens, UniProt P78356)
T4 sequence (P78356 whole entry): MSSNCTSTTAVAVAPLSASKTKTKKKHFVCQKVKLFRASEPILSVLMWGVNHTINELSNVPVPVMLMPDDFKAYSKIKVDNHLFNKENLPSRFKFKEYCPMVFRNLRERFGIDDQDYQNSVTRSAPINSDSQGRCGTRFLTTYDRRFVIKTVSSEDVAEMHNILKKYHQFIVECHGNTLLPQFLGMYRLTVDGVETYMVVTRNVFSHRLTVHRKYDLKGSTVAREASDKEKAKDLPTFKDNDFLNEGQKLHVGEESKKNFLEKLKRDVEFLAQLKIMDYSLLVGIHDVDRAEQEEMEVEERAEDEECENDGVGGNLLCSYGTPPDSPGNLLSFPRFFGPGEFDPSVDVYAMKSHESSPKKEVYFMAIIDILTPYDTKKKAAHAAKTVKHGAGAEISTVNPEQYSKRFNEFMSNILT

Vascular endothelial growth factor receptor 2, sequence (P35968 whole entry): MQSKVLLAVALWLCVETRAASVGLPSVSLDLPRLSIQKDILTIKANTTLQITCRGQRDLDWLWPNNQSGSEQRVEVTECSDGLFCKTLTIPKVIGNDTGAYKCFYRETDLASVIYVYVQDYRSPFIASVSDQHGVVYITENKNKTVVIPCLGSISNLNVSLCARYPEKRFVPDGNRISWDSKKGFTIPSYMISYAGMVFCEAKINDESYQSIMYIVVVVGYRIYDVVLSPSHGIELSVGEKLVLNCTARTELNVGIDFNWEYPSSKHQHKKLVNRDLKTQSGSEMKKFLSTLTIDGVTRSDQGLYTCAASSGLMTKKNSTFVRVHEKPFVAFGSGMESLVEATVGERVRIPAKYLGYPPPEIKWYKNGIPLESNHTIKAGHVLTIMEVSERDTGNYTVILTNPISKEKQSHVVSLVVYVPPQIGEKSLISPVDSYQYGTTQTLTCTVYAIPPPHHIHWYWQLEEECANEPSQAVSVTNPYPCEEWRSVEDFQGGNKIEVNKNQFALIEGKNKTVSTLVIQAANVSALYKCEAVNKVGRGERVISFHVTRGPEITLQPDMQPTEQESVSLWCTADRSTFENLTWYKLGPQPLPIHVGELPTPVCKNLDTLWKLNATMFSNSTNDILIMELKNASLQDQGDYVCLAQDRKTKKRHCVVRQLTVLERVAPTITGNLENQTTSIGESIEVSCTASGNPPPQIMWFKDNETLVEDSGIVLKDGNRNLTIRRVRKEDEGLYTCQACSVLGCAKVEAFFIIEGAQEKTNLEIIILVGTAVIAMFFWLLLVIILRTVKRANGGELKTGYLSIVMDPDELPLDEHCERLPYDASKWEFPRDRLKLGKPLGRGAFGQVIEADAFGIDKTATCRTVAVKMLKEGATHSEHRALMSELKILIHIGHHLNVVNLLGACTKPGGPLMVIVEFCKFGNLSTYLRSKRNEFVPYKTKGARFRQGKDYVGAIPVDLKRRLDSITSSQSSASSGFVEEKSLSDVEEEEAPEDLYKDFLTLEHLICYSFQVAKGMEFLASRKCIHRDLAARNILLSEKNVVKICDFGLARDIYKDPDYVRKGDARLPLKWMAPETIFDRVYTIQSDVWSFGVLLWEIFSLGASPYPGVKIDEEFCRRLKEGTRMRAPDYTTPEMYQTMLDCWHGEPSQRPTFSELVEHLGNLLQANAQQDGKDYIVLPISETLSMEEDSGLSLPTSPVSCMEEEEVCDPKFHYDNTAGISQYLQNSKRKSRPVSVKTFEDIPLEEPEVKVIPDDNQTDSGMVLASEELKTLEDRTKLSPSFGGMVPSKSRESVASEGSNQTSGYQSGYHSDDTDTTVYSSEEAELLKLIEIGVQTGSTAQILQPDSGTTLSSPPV
Serine/threonine-protein kinase PAK 6, sequence (Q9NQU5 whole entry): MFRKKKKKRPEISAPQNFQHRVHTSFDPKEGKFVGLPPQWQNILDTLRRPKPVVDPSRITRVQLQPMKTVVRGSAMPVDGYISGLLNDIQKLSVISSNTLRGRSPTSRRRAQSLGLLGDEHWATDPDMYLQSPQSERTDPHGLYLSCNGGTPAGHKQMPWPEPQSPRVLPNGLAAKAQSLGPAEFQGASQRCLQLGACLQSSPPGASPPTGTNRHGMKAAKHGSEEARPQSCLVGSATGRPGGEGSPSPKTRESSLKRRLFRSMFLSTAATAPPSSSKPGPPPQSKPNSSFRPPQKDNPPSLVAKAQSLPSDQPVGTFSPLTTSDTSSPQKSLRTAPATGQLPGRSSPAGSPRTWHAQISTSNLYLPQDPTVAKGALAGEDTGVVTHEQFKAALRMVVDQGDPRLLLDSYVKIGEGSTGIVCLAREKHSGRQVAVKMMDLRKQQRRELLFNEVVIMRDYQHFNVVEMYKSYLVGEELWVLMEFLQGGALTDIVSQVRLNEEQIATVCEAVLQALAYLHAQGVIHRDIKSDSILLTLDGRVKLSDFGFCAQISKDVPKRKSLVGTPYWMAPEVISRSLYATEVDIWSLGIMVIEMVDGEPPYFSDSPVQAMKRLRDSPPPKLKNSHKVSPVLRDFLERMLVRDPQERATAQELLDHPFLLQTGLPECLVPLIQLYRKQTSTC
Mast/stem cell growth factor receptor Kit, sequence (P10721 26-976 V559D limits assumed): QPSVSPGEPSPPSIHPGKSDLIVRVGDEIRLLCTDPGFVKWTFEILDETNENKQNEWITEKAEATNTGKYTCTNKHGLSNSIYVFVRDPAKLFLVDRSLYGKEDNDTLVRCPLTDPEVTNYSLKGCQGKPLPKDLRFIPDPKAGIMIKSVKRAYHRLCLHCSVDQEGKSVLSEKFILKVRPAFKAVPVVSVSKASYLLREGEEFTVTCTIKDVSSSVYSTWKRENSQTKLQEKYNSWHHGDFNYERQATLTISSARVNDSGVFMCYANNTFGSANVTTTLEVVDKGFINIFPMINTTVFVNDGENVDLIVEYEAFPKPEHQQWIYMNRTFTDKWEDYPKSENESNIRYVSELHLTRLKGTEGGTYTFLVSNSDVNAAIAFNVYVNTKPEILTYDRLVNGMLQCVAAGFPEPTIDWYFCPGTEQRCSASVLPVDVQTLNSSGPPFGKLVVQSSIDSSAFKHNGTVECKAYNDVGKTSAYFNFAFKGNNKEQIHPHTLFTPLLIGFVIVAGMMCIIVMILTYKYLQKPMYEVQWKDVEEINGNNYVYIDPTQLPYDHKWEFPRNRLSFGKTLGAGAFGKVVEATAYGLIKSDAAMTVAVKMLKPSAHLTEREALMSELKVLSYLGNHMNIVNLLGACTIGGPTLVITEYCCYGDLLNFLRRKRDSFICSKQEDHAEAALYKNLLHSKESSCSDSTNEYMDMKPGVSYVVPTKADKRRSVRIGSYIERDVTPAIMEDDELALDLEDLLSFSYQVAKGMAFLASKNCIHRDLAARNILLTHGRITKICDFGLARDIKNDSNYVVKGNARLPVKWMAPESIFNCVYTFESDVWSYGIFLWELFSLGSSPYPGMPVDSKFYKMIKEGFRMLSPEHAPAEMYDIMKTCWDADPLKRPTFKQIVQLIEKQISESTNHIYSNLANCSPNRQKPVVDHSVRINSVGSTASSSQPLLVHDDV
Activin receptor type-2B, sequence (Q13705 whole entry): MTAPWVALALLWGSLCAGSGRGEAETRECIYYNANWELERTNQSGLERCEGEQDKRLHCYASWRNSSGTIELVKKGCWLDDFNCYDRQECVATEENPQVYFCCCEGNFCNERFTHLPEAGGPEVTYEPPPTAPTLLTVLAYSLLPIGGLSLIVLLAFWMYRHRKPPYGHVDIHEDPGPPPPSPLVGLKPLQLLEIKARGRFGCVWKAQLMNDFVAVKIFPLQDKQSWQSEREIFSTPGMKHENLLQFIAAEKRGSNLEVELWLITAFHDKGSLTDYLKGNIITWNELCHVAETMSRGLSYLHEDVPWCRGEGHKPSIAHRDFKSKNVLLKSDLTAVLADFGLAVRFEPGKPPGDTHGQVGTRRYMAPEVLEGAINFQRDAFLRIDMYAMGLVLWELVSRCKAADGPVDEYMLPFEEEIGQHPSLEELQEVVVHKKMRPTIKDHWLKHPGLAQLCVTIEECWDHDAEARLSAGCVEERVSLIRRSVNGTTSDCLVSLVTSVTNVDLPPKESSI
Mitogen-activated protein kinase kinase kinase 9, sequence (P80192 whole entry): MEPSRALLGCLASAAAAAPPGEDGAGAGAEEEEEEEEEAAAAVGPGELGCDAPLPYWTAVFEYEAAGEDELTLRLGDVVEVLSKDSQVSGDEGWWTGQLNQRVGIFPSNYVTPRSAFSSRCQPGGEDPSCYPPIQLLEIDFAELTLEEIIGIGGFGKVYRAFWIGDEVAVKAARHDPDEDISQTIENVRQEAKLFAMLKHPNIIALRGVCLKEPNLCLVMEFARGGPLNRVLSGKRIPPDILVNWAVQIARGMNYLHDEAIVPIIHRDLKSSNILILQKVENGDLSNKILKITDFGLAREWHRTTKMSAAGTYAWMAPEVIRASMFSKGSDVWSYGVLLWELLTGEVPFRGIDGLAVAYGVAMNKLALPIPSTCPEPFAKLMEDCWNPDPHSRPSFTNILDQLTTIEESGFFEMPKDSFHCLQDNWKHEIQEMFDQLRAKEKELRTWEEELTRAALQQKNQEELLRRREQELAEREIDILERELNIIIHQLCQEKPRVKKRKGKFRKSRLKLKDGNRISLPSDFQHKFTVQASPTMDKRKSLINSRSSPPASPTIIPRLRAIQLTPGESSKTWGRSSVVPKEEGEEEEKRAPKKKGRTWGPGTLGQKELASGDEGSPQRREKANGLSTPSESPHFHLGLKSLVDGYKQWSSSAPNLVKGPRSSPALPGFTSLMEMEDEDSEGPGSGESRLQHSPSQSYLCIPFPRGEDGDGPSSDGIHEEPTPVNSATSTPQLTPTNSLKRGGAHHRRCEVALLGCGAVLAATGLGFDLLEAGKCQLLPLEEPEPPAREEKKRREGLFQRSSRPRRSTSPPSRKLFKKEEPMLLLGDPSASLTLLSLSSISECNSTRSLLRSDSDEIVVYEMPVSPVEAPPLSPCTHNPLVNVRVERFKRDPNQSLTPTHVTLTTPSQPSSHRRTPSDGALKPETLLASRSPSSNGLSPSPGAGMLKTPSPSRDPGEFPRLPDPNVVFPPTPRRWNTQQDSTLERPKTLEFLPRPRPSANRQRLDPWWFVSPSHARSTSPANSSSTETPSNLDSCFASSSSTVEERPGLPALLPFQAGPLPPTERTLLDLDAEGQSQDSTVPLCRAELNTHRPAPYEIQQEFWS

Structure (SMILES)	Kd [1]	Kd [2]	Kd [3]	Kd [4]	Kd [5]	Kd [6]	Kd (Myosin-IIIa)	Kd [7]	Kd [8]	Kd [9]	Kd (Activin receptor type-2B)	Kd [10]	Kd [11]	Kd [12]
CCOc1cc2ncc(C#N)c(Nc3ccc(F)c(Cl)c3)c2cc1NC(=O)/C=C/CN(C)C [PELITINIB]	> 10 µM	> 10 µM	> 10 µM	> 10 µM	> 10 µM	> 10 µM	> 10 µM	> 10 µM	> 10 µM	4.9 µM	> 10 µM	> 10 µM	8.7 µM	–
COCC(=O)NC/C=C/c1ccc2ncnc(Nc3ccc(Oc4ccc(C)nc4)c(C)c3)c2c1 [CP-724714]	> 10 µM	> 10 µM	> 10 µM	> 10 µM	> 10 µM	> 10 µM	> 10 µM	> 10 µM	> 10 µM	> 10 µM	> 10 µM	> 10 µM	> 10 µM	> 10 µM
NC(=O)c1ccc(-c2nc(-c3ccc4c(c3)OCO4)c(-c3ccccn3)[nH]2)cc1 [SB-431542]	> 10 µM	> 10 µM	> 10 µM	> 10 µM	> 10 µM	> 10 µM	> 10 µM	> 10 µM	> 10 µM	> 10 µM	> 10 µM	> 10 µM	> 10 µM	> 10 µM
Nc1nc(Nc2ccc(S(N)(=O)=O)cc2)nn1C(=O)c1c(F)cccc1F [JNJ-7706621]	–	> 10 µM	–	–	–	–	> 10 µM	> 10 µM	3.6 µM	–	5.9 µM	> 10 µM	> 10 µM	–
Oc1ccc(-c2nc(-c3ccncc3)c(-c3ccc(F)cc3)[nH]2)cc1 [SB-202190]	> 10 µM	> 10 µM	> 10 µM	> 10 µM	4.5 µM	> 10 µM	> 10 µM	> 10 µM	> 10 µM	> 10 µM	4.8 µM	0.53 µM	> 10 µM	> 10 µM
